Reference: patent publication US11345710B2, “Imidazo[1,2-b]pyrimido[4,5-d]pyridazin-5(6H)-ones and the use thereof” (IMPACT THERAPEUTICS (SHANGHAI), INC, priority 2017, dated 2022)
Where two headings read alike, the source gives them in different places.

Experiments:
Wee1 kinase (h) = Wee1 kinase (h) (Homo sapiens, UniProt P30291); assay: Wee1 kinase (h) detection method, [γ-33P]-ATP filter assay; format: biochemical; conditions: 10 μM ATP, 40 minutes at room temperature
Procedure: Wee1 kinase (h) was incubated with 20 mM Tris/HCl pH 8.5, 0.2 mM EDTA, 500 μM […], 10 mM MgAcetate and 10 μM [γ-^33P]-ATP. Then the stock solution of all compounds under test with 50× concentration in 100% DMSO was added to make the final concentration of 1/0.1/0.01 μM, and then mixed the mixture well. The reaction was initiated by the addition of the Mg/ATP mix. After incubation for 40 minutes at room temperature, the reaction was stopped by the addition of phosphoric acid to a concentration of 0.5%. 10 μL of the reaction liquor was then spotted onto a P30 filtermat and washed four times in 0.425% phosphoric acid and once in methanol prior to drying and scintillation counting. Each compound sample was duplicated in duplicate. The negative control was lack of all the components of Wee1 enzyme, and the positive was addition of 30% phosphoric acid to terminate the reaction. The Wee1 inhibitor AZD1775 was detected at 10/0.01 μM at the same experiment condition.

LoVo cells = assay: MTT based cell viability assay on LoVo cells; conditions: Homo sapiens, 72 h, read-out: IC50, growth inhibition on LoVo cells
Procedure: Determination of the Cell Growth Inhibiting Activity of 6-(2,6-dichlorophenyl)-2-((4-(4-methylpiperazin-1-yl)phenyl)amino)imidazo[1,2-b]pyrimido[4,5-d]pyridazin-5(6H)-one and Analogs Thereof on LoVo Cells Using a MTT Based Cell Viability Assay
The thawed LoVo cells were cultured and passaged to the third generation, and the growth state was good and the confluence was about 90%, which began to be used in the experiment. The LoVo cells were digested with trypsin, centrifuged at 800 rpm for 5 min, the supernatant was discarded, resuspended with fresh culture medium, and counted. 6000 Cells are seeded to each well of a 96-well cell culture plate. The cells were incubated at 37° C. in a 5% CO2 cell culture incubator overnight. The tested sample (including the tested compound and the reference compound AZD1775) was diluted continuously to 8 concentrations (the last concentration was negative control of DMSO) with a 1:3 and 1:10 dilution in DMSO respectively: 10 μM, 3.3 μM, 1 μM, 0.33 μM, 0.1 μM, 0.033 μM, 0.01 μM, 0 μM (the final concentration of DMSO was 1%). 5 μL of each concentration was added to 120 μL of culture medium (25 times diluted), and the mixture was shaken well. The overnight cells were taken and the culture medium was removed, 195 μL of fresh culture medium was added to each well, and 5 μL of diluted culture medium containing the corresponding concentration of the tested sample was added respectively, and the culture plate was then placed in the 5% CO2 cell culture incubator at 37° C. for 3 d. After removing the original solution and adding 100 μL of fresh serum-free DMEM culture medium containing MTT (0.5 mg/mL) per well, the culture was continued. The original solution was removed after 4 hrs and 100 μl DMSO was added to each well. The 96-well cell culture plates were shaken away from light for 10 min and readed in a multifunctional reader at 552/630/690 nm to give absorption values (OD values). The data were analyzed using a graphic software (Graph Pad Prism 5.0) and the inhibitory activity of the compound on cell proliferation was plotted in terms of cell survival and compound concentration. The IC50 values were fitted by the S-shaped dose-response curve equation as follows: Y=100/(1+10^(Log C−Log IC50)), where C was the concentration of testing compounds.

NCI-H1299 cells = assay: MTT based cell viability assay on NCI-H1299 cells; conditions: Homo sapiens, read-out: IC50, growth inhibition on NCI-H1299 cells
Procedure: Determination of the Cell Growth Inhibiting Activity of 6-(2,6-dichlorophenyl)-2-((4-(4-methylpiperazin-1-yl)phenyl)amino)imidazo[1,2-b]pyrimido[4,5-d]pyridazin-5(6H)-one and Analogs on NCI-H1299 Cells Using a MTT Based Cell Viability Assay
The thawed NCI-H1299 cells were cultured and passaged to the third generation, and the growth state was good and the confluence was about 90%, which began to be used in the experiment. The NCI-H1299 cells were digested with trypsin, centrifuged at 800 rpm for 5 min, the supernatant was discarded, resuspended with fresh culture medium, and counted. 1000 Cells are seeded to each well of a 96-well plate. The cells are incubated at 37° C. in a 5% CO2 cell culture incubator overnight. The tested sample (including the tested compound and the reference compound AZD1775) was diluted continuously to 8 concentrations (the last concentration was negative control of DMSO) with a 1:3 and 1:10 dilution in DMSO respectively: 10 μM, 3.3 μM, 1 μM, 0.33 μM, 0.1 μM, 0.033 μM, 0.01 μM, 0 μM (the final concentration of DMSO was 1%). 5 μL of each concentration was added to 120 μL of culture medium (25 times diluted), and the mixture was shaken well. The overnight cells were taken and the culture medium was removed, 195 μL of fresh culture medium was added to each well, and 5 μL of diluted culture medium containing the corresponding concentration of the tested sample was added respectively, and the culture plate was then placed in the 5% CO2 cell culture incubator at 37° C. for 3 d. After removing the original solution and adding 100 μL of fresh serum-free DMEM culture medium containing MTT (0.5 mg/mL) per well, the culture was continued. The original solution was removed after 4 hrs and 100 μl DMSO was added to each well. The 96-well cell culture plates were shaken away from light for 10 min and readed in a multifunctional reader at 552/630/690 nm to give absorption values (OD values). The data were analyzed using a graphic software (Graph Pad Prism 5.0) and the inhibitory activity of the compound on cell proliferation was plotted in terms of cell survival and compound concentration. The IC50 values were fitted by the S-shaped dose-response curve equation as follows: Y=100/(1+10^(Log C−Log IC50)), where C was the concentration of testing compounds.

[1] = 72 h, NCI-H1299 cells, 3 d, MTT

Wee1 kinase (h), sequence (P30291 whole entry): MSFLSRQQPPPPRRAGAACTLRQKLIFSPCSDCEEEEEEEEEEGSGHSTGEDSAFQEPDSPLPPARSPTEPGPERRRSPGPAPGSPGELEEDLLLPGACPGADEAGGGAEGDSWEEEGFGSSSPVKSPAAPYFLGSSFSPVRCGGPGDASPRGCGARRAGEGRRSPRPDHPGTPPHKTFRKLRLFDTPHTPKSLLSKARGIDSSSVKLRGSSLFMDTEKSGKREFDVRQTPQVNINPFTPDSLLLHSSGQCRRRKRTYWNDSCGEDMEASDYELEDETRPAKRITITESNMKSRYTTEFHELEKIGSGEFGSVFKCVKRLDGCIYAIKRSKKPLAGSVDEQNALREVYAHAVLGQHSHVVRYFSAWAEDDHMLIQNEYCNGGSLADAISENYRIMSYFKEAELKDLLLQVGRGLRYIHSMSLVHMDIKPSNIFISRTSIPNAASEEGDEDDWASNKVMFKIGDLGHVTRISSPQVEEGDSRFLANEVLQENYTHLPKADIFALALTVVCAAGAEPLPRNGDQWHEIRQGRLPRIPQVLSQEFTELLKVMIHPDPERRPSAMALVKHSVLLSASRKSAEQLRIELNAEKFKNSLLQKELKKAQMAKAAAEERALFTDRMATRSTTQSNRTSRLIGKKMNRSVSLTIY

Cc1cc(Nc2ncc3c(=O)n(-c4c(C)cccc4F)n4ccnc4c3n2)cc(C)c1N1CCN(C)CC1 [Example 15, 6-(2-fluoro-6-methylphenyl)-2-((3,5-dimethyl-4-(4-methylpiperazin-1-yl)phenyl)amino) imidazo[1,2-b]pyrimido[4,5-d]pyridazin-5(6H)-one]
Inh. (%) of Wee1 kinase (Wee1 kinase (h); C 1 μm): 87% | IC50 (LoVo cells; LoVo cells, 3 d, MTT): 832 nM | IC50 (NCI-H1299 cells; [1]): 904 nM

Cc1cc(Nc2ncc3c(=O)n(-c4c(Cl)cccc4Cl)n4ccnc4c3n2)cc(F)c1N1CCC(N(C)C)CC1 [Example 37, 6-(2,6-dichlorophenyl)-2-((3-fluoro-5-methyl-4-(4-(dimethylamino)piperidin-1-yl)phenyl)amino)imidazo[1,2-b]pyrimido[4,5-d]pyridazin-5(6H)-one]
Inh. (%) of Wee1 kinase (Wee1 kinase (h); C 0.01 μm): 13% | Inh. (%) of Wee1 kinase (Wee1 kinase (h); C 1 μm): 96% | IC50 (LoVo cells; LoVo): 291 nM | IC50 (NCI-H1299 cells; NCI-H1299, 72 h): 187 nM

Cc1cc(Nc2ncc3c(=O)n(-c4c(Cl)cccc4Cl)n4cc(C(C)C)nc4c3n2)ccc1N1CCC(N(C)C)CC1 [Example 62, 6-(2,6-dichlorophenyl)-2-((3-methyl-4-(4-(dimethylamino)piperidin-1-yl)phenyl)amino)-9-isopropylimidazo[1,2-b]pyrimido[4,5-d]pyridazin-5(6H)-one]
Inh. (%) of Wee1 kinase (Wee1 kinase (h); C 0.01 μm): 7% | IC50 (LoVo cells; LoVo cells, 3 d, MTT): 620 nM | IC50 (NCI-H1299 cells; [1]): 197 nM

Cc1cc(Nc2ncc3c(=O)n(-c4c(Cl)cccc4Cl)n4ccnc4c3n2)ccc1N1CCNCC1 [Example 26, 6-(2,6-dichlorophenyl)-2-((3-methyl-4-(piperazin-1-yl)phenyl)amino)imidazo[1,2-b]pyrimido[4,5-d]pyridazin-5(6H)-one]
Inh. (%) of Wee1 kinase (Wee1 kinase (h); C 0.01 μm): 27% | IC50 (LoVo cells; LoVo): 201 nM | IC50 (NCI-H1299 cells; NCI-H1299, 72 h): 268 nM

Cc1cc(Nc2ncc3c(=O)n(-c4c(F)cccc4F)n4ccnc4c3n2)cc(Cl)c1N1CCN(C)CC1 [Example 20, 6-(2,6-difluorophenyl)-2-((3-chloro-5-methyl-4-(4-methylpiperazin-1-yl)phenyl)amino) imidazo[1,2-b]pyrimido[4,5-d]pyridazin-5(6H)-one]
Inh. (%) of Wee1 kinase (Wee1 kinase (h); C 1 μm): 77% | IC50 (LoVo cells; LoVo cells, 3 d, MTT): 364 nM | IC50 (NCI-H1299 cells; [1]): 597 nM

Cc1cccc(F)c1-n1c(=O)c2cnc(Nc3ccc(N4CCN(C)CC4)c(Cl)c3)nc2c2nccn21 [Example 51, 6-(2-fluoro-6-methylphenyl)-2-((3-chloro-4-(4-methylpiperazin-1-yl)phenyl)amino)imidazo[1,2-b]pyrimido[4,5-d]pyridazin-5(6H)-one]
Inh. (%) of Wee1 kinase (Wee1 kinase (h); C 1 μm): 88% | IC50 (LoVo cells; LoVo cells, 3 d, MTT): 998 nM | IC50 (NCI-H1299 cells; [1]): 1220 nM

Cc1cn2c(n1)c1nc(Nc3ccc(N4CCC(N(C)C)CC4)c(C)c3)ncc1c(=O)n2-c1c(Cl)cccc1Cl [Example 58, 6-(2,6-dichlorophenyl)-2-((3-methyl-4-(4-(dimethylamino)piperidin-1-yl)phenyl)amino)-9-methylimidazo[1,2-b]pyrimido[4,5-d]pyridazin-5(6H)-one]
Inh. (%) of Wee1 kinase (Wee1 kinase (h); C 0.01 μm): 9% | IC50 (LoVo cells; LoVo cells, 3 d, MTT): 242 nM | IC50 (NCI-H1299 cells; [1]): 151 nM

Cc1cc(Nc2ncc3c(=O)n(-c4c(Cl)cccc4Cl)n4ccnc4c3n2)cc(F)c1N1CCN(C)CC1 [Example 28, 6-(2,6-dichlorophenyl)-2-((3-fluoro-5-methyl-4-(4-methylpiperazin-1-yl)phenyl)amino)imidazo[1,2-b]pyrimido[4,5-d]pyridazin-5(6H)-one]
Inh. (%) of Wee1 kinase (Wee1 kinase (h); C 0.01 μm): 15% | Inh. (%) of Wee1 kinase (Wee1 kinase (h); C 1 μm): 95% | IC50 (LoVo cells; LoVo): 266 nM | IC50 (NCI-H1299 cells; NCI-H1299, 72 h): 295 nM

COc1cc(Nc2ncc3c(=O)n(-c4c(Cl)cccc4Cl)n4ccnc4c3n2)cc(Cl)c1N1CCC(N(C)C)CC1 [Example 38, 6-(2,6-dichlorophenyl)-2-((3-chloro-5-methoxy-4-(4-(dimethylamino)piperidin-1-yl)phenyl)amino)imidazo[1,2-b]pyrimido[4,5-d]pyridazin-5(6H)-one]
Inh. (%) of Wee1 kinase (Wee1 kinase (h); C 0.01 μm): 11% | IC50 (LoVo cells; LoVo): 416 nM | IC50 (NCI-H1299 cells; NCI-H1299, 72 h): 978 nM

CCc1cn2c(n1)c1nc(Nc3ccc(N4CCC(N(C)C)CC4)c(C)c3)ncc1c(=O)n2-c1c(Cl)cccc1Cl [Example 61, 6-(2,6-dichlorophenyl)-2-((3-methyl-4-(4-(dimethylamino)piperidin-1-yl)phenyl)amino)-9-ethylimidazo[1,2-b]pyrimido[4,5-d]pyridazin-5(6H)-one]
Inh. (%) of Wee1 kinase (Wee1 kinase (h); C 0.01 μm): 12% | IC50 (LoVo cells; LoVo cells, 3 d, MTT): 352 nM | IC50 (NCI-H1299 cells; [1]): 126 nM

Cc1cc(Nc2ncc3c(=O)n(-c4c(F)cccc4Cl)n4ccnc4c3n2)cc(C)c1N1CCN(C)CC1 [Example 11, 6-(2-chloro-6-fluorophenyl)-2-((3,5-dimethyl-4-(4-methylpiperazin-1-yl)phenyl)amino)imidazo[1,2-b]pyrimido[4,5-d]pyridazin-5(6H)-one]
Inh. (%) of Wee1 kinase (Wee1 kinase (h); C 1 μm): 93% | IC50 (LoVo cells; LoVo cells, 3 d, MTT): 266 nM | IC50 (NCI-H1299 cells; [1]): 555 nM

Cc1cc(Nc2ncc3c(=O)n(-c4c(C)cccc4Cl)n4ccnc4c3n2)cc(C)c1N1CCN(C)CC1 [Example 17, 6-(2-chloro-6-methylphenyl)-2-((3,5-dimethyl-4-(4-methylpiperazin-1-yl)phenyl)amino)imidazo[1,2-b]pyrimido[4,5-d]pyridazin-5(6H)-one]
Inh. (%) of Wee1 kinase (Wee1 kinase (h); C 0.01 μm): 5% | Inh. (%) of Wee1 kinase (Wee1 kinase (h); C 0.1 μm): 56% | Inh. (%) of Wee1 kinase (Wee1 kinase (h); C 1 μm): 96% | IC50 (LoVo cells; LoVo cells, 3 d, MTT): 902 nM | IC50 (NCI-H1299 cells; [1]): 802 nM

Cc1cc(Nc2ncc3c(=O)n(-c4c(F)cccc4Cl)n4ccnc4c3n2)cc(F)c1N1CCC(N(C)C)CC1 [Example 25, 6-(2-chloro-6-fluorophenyl)-2-((3-fluoro-5-methyl-4-(4-(dimethylamino)piperidin-1-yl)phenyl)amino)imidazo[1,2-b]pyrimido[4,5-d]pyridazin-5(6H)-one]
Inh. (%) of Wee1 kinase (Wee1 kinase (h); C 0.01 μm): 10% | Inh. (%) of Wee1 kinase (Wee1 kinase (h); C 1 μm): 96% | IC50 (LoVo cells; LoVo cells, 3 d, MTT): 144 nM | IC50 (NCI-H1299 cells; [1]): 249 nM

Cc1cc(Nc2ncc3c(=O)n(-c4c(C)cccc4Cl)n4ccnc4c3n2)ccc1N1CCN(C)CC1 [Example 16, 6-(2-chloro-6-methylphenyl)-2-((3-methyl-4-(4-methylpiperazin-1-yl)phenyl)amino)imidazo[1,2-b]pyrimido[4,5-d]pyridazin-5(6H)-one]
Inh. (%) of Wee1 kinase (Wee1 kinase (h); C 0.01 μm): 22% | Inh. (%) of Wee1 kinase (Wee1 kinase (h); C 0.1 μm): 73% | Inh. (%) of Wee1 kinase (Wee1 kinase (h); C 1 μm): 93% | IC50 (LoVo cells; LoVo cells, 3 d, MTT): 424 nM | IC50 (NCI-H1299 cells; [1]): 365 nM
